# Data reported in US20180049998A1, “Naphthoquinone Compounds and Methods for Preparing the Same” (priority 2016, published 2018).
smiles,measurement,value
CCOC(=O)C(C)(CCC1=C(C)C(=O)c2ccccc2C1=O)C(=O)OCC,melting point,96 °C
